Measurements published in patent US11898210B2, “Tools for assessing FimH blockers therapeutic efficiency” (ENTEROME, priority 2017, dated 2024).

Columns and labels:
[1] = system: bacterial morphotypes isolated from biopsies of CD patients; assay: Aggregation to EB8018 of bacterial morphotypes isolated from MOBIDIC ileal biopsies; format: cell-based; details: 106 CD patients with conclusive biopsy results; 10 nM/100 nM/1 μM EB8018
Method: Mucosal specimens, isolated from CD patients have been collected from the MOBIDIC study. For each patient, 4 biopsies were collected, 2 or 3 for further investigations and 1 or 2 as back-up sample stored at Cell&Co (Clermont-Ferrand, France). The ileal specimens were introduced immediately into preweighed vials containing 1.8 mL of refrigerated DMEM with 15% glycerol. The vials were weighed to establish the weight of sample. Ideally, the size of the biopsies must be between 5 and 10 mg. After being frozen at −80° C., vials were sent to Cell&Co and stored at −80° C. upon receipt.
On day 1, biopsies were processed to retrieve adherent bacteria (extract A) and invasive bacteria (extract I). […]
Extracts A and I were cultivated in LB broth for 2×24 hours and on day 3, the LB overnight cultures were used for aggregation assays with EB8018 compound. […] Every hour, bacterial growth was measured and a picture of each well was taken using a SPARK10M. After 5 hours, the microplate was shacked and 10 min after, a picture was taken for aggregation assessment (aggregation was evaluated by a technician with comparison with DMSO). […]
When no aggregation was observed on extracts or in case of inconclusive evaluation (for example with observation of aggregation with the DMSO without any compound), a second biopsy was analysed following the same protocol. […]

[2] = system: LF82; assay: Aggregation assay with EB8018 on positive control strain LF82; format: cell-based, Escherichia coli
Method: (§1) Three days before aggregation assays, bacterial strains were defrosted on TSA (Tryptone Soya Agar) plates. A first overnight culture was performed by inoculation of 3 mL of LB broth with a single colony of bacteria followed by a second overnight culture (1 mL of the first culture+4 mL LB broth).
(§2) Six concentrations of EB8018 (sample SP-0010269-017 produced by China Gateway) were tested in the aggregation assays (1 nM/10 nM/100 nM/1 μM/10 μM and 100 μM), 500× working solutions were prepared in pure DMSO by 10-fold serial dilutions from a 100 mM stock solution (65 mg EB8018+1 mL DMSO; MEB8018:649.68 g/mol). The 500× working solutions (1 μM, 10 μM, 100 μM, 1 mM, 10 mM and 100 mM) were split into aliquots and stored at −20° C., until use.
On the day of the test, an aliquot of each EB8018 500× working solution (1 μM, 10 μM, 100 μM, 1 mM, 10 mM and 100 mM) was defrosted and diluted twice in LB medium (1:20 for the first dilution and 1:25 for the second dilution) to obtain respectively six 2× working solutions (2 nM, 20 nM, 200 nM, 2 μM, 20 μM and 200 μM). The second overnight bacterial cultures were diluted in LB medium (50-fold dilution). Fifty μL of these bacteria dilutions were dispensed into 96-well plates (8 wells/strain). Fifty μL of the EB8018 2× working solutions or fresh LB or LB with 0.2% DMSO were added to the wells. Microplates were incubated for 5 hours at 37° C. under constant shaking (200 rpm). Every hour, each well was observed and the starting time of aggregation was recorded. After 5 hours of incubation, a picture was taken only in wells where an aggregation was observed. For each concentration and each time point, aggregation was evaluated by a technician.
This protocol was applied to the 113 isolated bacterial strains. On each plate, a positive control (LF82) and a negative control (LF82-ΔFimH) were used.

[3] = system: isolated E. coli strains; assay: Aggregation assay with EB8018 on the collection of isolated bacterial strains; format: cell-based, Escherichia coli
Text: 110 E. coli strains from La Girona University (Margarita Medina-Martinez Lab-Girona-Spain) and Cornell (Kenneth Simpson Lab—Ithaca—USA) have been made available through MTA. These isolated strains had been previously extracted from the stool or ileal/colonic biopsies of IBD patients or controls and had been characterised for their AIEC phenotype (for Cornell strains see Dogan B. et al., 2014; Baumgart M. et al., 2007, summarized in the Appendix). Those 110 strains have been sent to SMALTIS (Besangon, France) who is in charge of all laboratory work. An additional 3 non E. coli strains have been ordered as well as LF82 and LF82 deltaFimH that serve as respectively positive and negative controls.
as §1, §2
(§3) On the day of the test, an aliquot of each EB8018 500× working solution (1 μM, 10 μM, 100 μM, 1 mM, 10 mM and 100 mM) was defrosted and diluted twice in LB medium (1:20 for the first dilution and 1:25 for the second dilution) to obtain respectively six 2× working solutions (2 nM, 20 nM, 200 nM, 2 μM, 20 μM and 200 μM). The second overnight bacterial cultures were diluted in LB medium (50-fold dilution). […] Every hour, each well was observed and the starting time of aggregation was recorded. […] For each concentration and each time point, aggregation was evaluated by a technician. […]

[4] = system: LF82-ΔFimH; assay: Aggregation assay with EB8018 on negative control strain LF82-ΔFimH; format: cell-based, Escherichia coli; details: whatever the concentration tested and whatever the time of incubation
Method: as §1, §2, §3

[5] = system: AIEC; details: CEABAC 10 Crohn's disease model; Sivignon 2015; cited from earlier work
[6] = system: AIEC; details: Bouckaert et al., 2005, 2013; cited from earlier work
[7] = system: cystitis murine model; details: Wellens et al., 2008; cited from earlier work

SMILES | share of patients with at least one morphotype that aggregated [1] [%] | share of patients with no aggregation [1] [%] | level of aggregation ([2]; LF82, 1 nM EB8018, after 5 h of incubation) | level of aggregation ([2]; LF82, 10 nM EB8018, after 5 h of incubation) | level of aggregation ([2]; LF82, 100 nM EB8018, after 5 h of incubation) | level of aggregation ([2]; LF82, 1 μM EB8018, after 5 h of incubation) | starting time of aggregation ([2]; LF82 positive control, incubation at 37° C.) [h] | share of analyzable strains classified on the grey zone (low aggregation) ([3]; 6 concentrations, every hour for 5 hours) [%] | share of analyzable strains that did not aggregate ([3]; all results negative across 6 concentrations and 5 hours) [%] | share of analyzable strains that did aggregate ([3]; at least one + or +/− across 6 concentrations and 5 hours) [%] | aggregation [4] | effect with AIEC [5] | in vitro AIEC adhesion inhibition [6] | concentration required for a significant bacterial load reduction [7]
CC(=O)N1CCC2(CC1)c1cc(C#C[C@H]3O[C@H](CO)[C@@H](O)[C@H](O)[C@@H]3O)ccc1-c1ccc(C#C[C@H]3O[C@H](CO)[C@@H](O)[C@H](O)[C@@H]3O)cc12 [EB8018, 1-(2,7-bis(((2R,3S,4R,5S,6R)-3,4,5-trihydroxy-6-(hydroxylmethyl)tetrahydro-2H-pyran-2-yl)ethynyl)spiro[fluorene-9,4′-piperidin]-1′-yl)ethan-1-one] | 65 | 15 | strong aggregation | strong aggregation | strong aggregation | moderate aggregation | 2 | 13 | 44 | 42 | did not aggregate | – | – | –
CCCCCCCO[C@H]1O[C@H](CO)[C@@H](O)[C@H](O)[C@@H]1O [Heptylmannose] | – | – | – | – | – | – | – | – | – | – | – | no effect | potent | millimolar concentrations are required
